Laboratory results from ChEMBL document CHEMBL1201862, “PubChem BioAssay data set” (2004).
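The compound was tested at five concentrations on cells cultured in 96-well plates, with a 48-hour exposure period. GI50: concentration for 50% inhibition of growth.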 Calls of active or inactive are those of the source. Rule as the data show it: active = GI50 up to about 1.1 µM and inactive = higher.

What was measured:
Assay in all cases: NCI anticancer screen, dose series, 48 h
TK-10 = tested on: TK-10
SR = tested on: SR
HCC 2998 = tested on: HCC 2998
OVCAR-3 = tested on: OVCAR-3
U-251 = tested on: U-251
HOP-62 = tested on: HOP-62
NCI-H522 = tested on: NCI-H522
SF-295 = tested on: SF-295
SW-620 = tested on: SW-620
SN12C = tested on: SN12C
UACC-62 = tested on: UACC-62
NCI-H460 = tested on: NCI-H460
CAKI-1 = tested on: CAKI-1
OVCAR-5 = tested on: OVCAR-5
OVCAR-8 = tested on: OVCAR-8
HOP-92 = tested on: HOP-92
OVCAR-4 = tested on: OVCAR-4

Measured: GI50

CNS(=O)(=O)NNS(=O)(=O)c1ccccc1
inactive: TK-10 > 100 µM | SR > 100 µM | HCC 2998 > 100 µM | OVCAR-3 > 100 µM | U-251 > 100 µM | HOP-62 > 100 µM | NCI-H522 > 100 µM | SF-295 > 100 µM | SW-620 > 100 µM | SN12C > 100 µM | UACC-62 > 100 µM | NCI-H460 > 100 µM | CAKI-1 > 100 µM | OVCAR-5 > 100 µM | OVCAR-8 > 100 µM | HOP-92 > 100 µM

C1C[N+]23CCC[N+]2(C1)CCC3 (stereo not drawn)
inactive: TK-10 > 100 µM | OVCAR-4 > 100 µM | HCC 2998 > 100 µM | OVCAR-3 > 100 µM | U-251 > 100 µM | HOP-62 > 100 µM | NCI-H522 > 100 µM | SF-295 > 100 µM | SW-620 > 100 µM | SN12C > 100 µM | UACC-62 > 100 µM | NCI-H460 > 100 µM | CAKI-1 > 100 µM | OVCAR-5 > 100 µM | OVCAR-8 > 100 µM | HOP-92 > 100 µM

Cc1ccc(C)c(N2C(=O)C(=O)C(c3nc4ccccc4s3)/C(=N\c3cccc4c(=O)[nH][nH]c(=O)c34)C2=O)c1 (stereo not drawn)
inactive: TK-10 > 100 µM | OVCAR-4 88.5 µM | SR > 100 µM | HCC 2998 > 100 µM | OVCAR-3 > 100 µM | U-251 > 100 µM | HOP-62 > 100 µM | SF-295 > 100 µM | SW-620 > 100 µM | SN12C > 100 µM | UACC-62 > 100 µM | NCI-H460 > 100 µM | CAKI-1 > 100 µM | OVCAR-5 > 100 µM | OVCAR-8 > 100 µM | HOP-92 > 100 µM

CC(=O)n1c2ccccc2c2nc3nc(Oc4ccc(C)cc4)c4ccccc4c3cc21
inactive: OVCAR-4 29.4 µM | SR > 100 µM | HCC 2998 > 100 µM | OVCAR-3 > 100 µM | U-251 41.6 µM | HOP-62 57 µM | NCI-H522 > 100 µM | SF-295 66.2 µM | SW-620 > 100 µM | SN12C > 100 µM | UACC-62 > 100 µM | NCI-H460 > 100 µM | CAKI-1 > 100 µM | OVCAR-5 > 100 µM | OVCAR-8 > 100 µM

O=C(/C=C/c1ccccc1)/C=C/c1ccccc1
inactive: TK-10 58.2 µM | OVCAR-4 22.1 µM | SR 26.2 µM | HCC 2998 37.8 µM | OVCAR-3 23 µM | U-251 20.6 µM | HOP-62 > 100 µM | SF-295 53.5 µM | SW-620 17.4 µM | SN12C 20.4 µM | UACC-62 33 µM | NCI-H460 27.5 µM | CAKI-1 92.9 µM | OVCAR-5 > 100 µM | HOP-92 34.8 µM

C[Si](C)(C)OC1CC(=O)OC1n1cc(F)c(=O)[nH]c1=O (stereo not drawn)
inactive: TK-10 > 100 µM | OVCAR-4 > 28.4 µM | SR 2.31 µM | OVCAR-3 52.8 µM | U-251 43 µM | HOP-62 15.7 µM | NCI-H522 19.5 µM | SF-295 > 76.9 µM | SW-620 24.2 µM | SN12C 40 µM | UACC-62 10.8 µM | NCI-H460 3.72 µM | CAKI-1 23.9 µM | OVCAR-5 > 89.9 µM | OVCAR-8 31.8 µM
active: HCC 2998 0.759 µM

O=C1C(=O)C(Br)(Br)C(Br)=C1Br
inactive: TK-10 19.4 µM | OVCAR-4 22.4 µM | HCC 2998 20.5 µM | OVCAR-3 15.5 µM | U-251 25.2 µM | HOP-62 > 100 µM | NCI-H522 2.33 µM | SF-295 57.4 µM | SW-620 13.8 µM | SN12C 23.7 µM | UACC-62 18.5 µM | NCI-H460 34 µM | CAKI-1 18.4 µM | OVCAR-5 13.6 µM | OVCAR-8 17.3 µM | HOP-92 14 µM

CC1(C(=O)NCCN(CCNC(=O)C2(C)CC3(C)CC(C)(C2)C(=O)NC3=O)CCNC(=O)C2(C)CC3(C)CC(C)(C2)C(=O)NC3=O)CC2(C)CC(C)(C1)C(=O)NC2=O (stereo not drawn)
active: HOP-92 < 0.01 µM
inactive: OVCAR-4 > 100 µM | SR > 100 µM | HCC 2998 > 100 µM | OVCAR-3 > 100 µM | U-251 > 100 µM | HOP-62 > 100 µM | SF-295 > 100 µM | SW-620 > 100 µM | SN12C > 100 µM | UACC-62 > 100 µM | NCI-H460 > 100 µM | CAKI-1 > 100 µM | OVCAR-8 > 100 µM

N#CNc1nc(N)c(-c2ccc(Cl)cc2)c(C(=O)Nc2nccs2)n1
inactive: TK-10 > 100 µM | OVCAR-4 > 100 µM | HCC 2998 > 100 µM | OVCAR-3 > 100 µM | U-251 > 100 µM | HOP-62 > 100 µM | NCI-H522 > 100 µM | SF-295 > 100 µM | SW-620 > 100 µM | SN12C > 100 µM | UACC-62 > 100 µM | NCI-H460 > 100 µM | CAKI-1 > 100 µM | OVCAR-5 > 100 µM | OVCAR-8 > 100 µM | HOP-92 > 100 µM

CCOC(=O)NC(=O)c1cn(CCOCCOC(=O)NCCCCCCNC(=O)OCCOCCn2cc(C(=O)NC(=O)OCC)c(=O)[nH]c2=O)c(=O)[nH]c1=O
inactive: TK-10 > 100 µM | OVCAR-4 > 100 µM | SR > 100 µM | HCC 2998 > 100 µM | OVCAR-3 > 100 µM | U-251 > 100 µM | HOP-62 > 100 µM | NCI-H522 > 100 µM | SF-295 > 100 µM | SW-620 > 100 µM | SN12C > 100 µM | UACC-62 > 100 µM | NCI-H460 > 100 µM | OVCAR-5 > 100 µM | OVCAR-8 > 100 µM | HOP-92 > 100 µM

O=C1CCC2(c3ccc(Cl)cc3)Nc3cc(Cl)ccc3N12 (stereo not drawn)
inactive: OVCAR-4 10.6 µM | SR 5.9 µM | OVCAR-3 10.4 µM | U-251 11.7 µM | HOP-62 15.5 µM | NCI-H522 10.2 µM | SF-295 9.04 µM | SW-620 6.14 µM | SN12C 15.3 µM | UACC-62 8.97 µM | OVCAR-8 7.76 µM

C/C=C1\CN2CCc3c([nH]c4ccccc34)C2C=C1CCO (stereo not drawn)
inactive: TK-10 > 340 µM | SR > 340 µM | HCC 2998 > 340 µM | OVCAR-3 231 µM | U-251 > 340 µM | HOP-62 > 340 µM | NCI-H522 > 340 µM | SF-295 > 340 µM | SW-620 > 340 µM | SN12C > 340 µM | UACC-62 > 340 µM | NCI-H460 > 340 µM | CAKI-1 > 340 µM | OVCAR-5 > 340 µM | OVCAR-8 > 340 µM | HOP-92 > 340 µM

Cc1nn(C(=O)CC(=O)Nc2ccc(Cl)cc2)c(C)c1/N=N/c1ccccc1C(=O)O
inactive: TK-10 > 100 µM | OVCAR-4 > 100 µM | HCC 2998 > 100 µM | OVCAR-3 > 100 µM | U-251 > 100 µM | HOP-62 > 100 µM | NCI-H522 > 100 µM | SF-295 > 100 µM | SW-620 > 100 µM | SN12C > 100 µM | UACC-62 > 100 µM | NCI-H460 > 100 µM | CAKI-1 > 100 µM | OVCAR-5 > 100 µM | OVCAR-8 > 100 µM

O=C(O)CNS(=O)(=O)c1ccc(NC(=O)c2cccc([N+](=O)[O-])c2)cc1
inactive: TK-10 > 100 µM | OVCAR-4 > 100 µM | HCC 2998 > 100 µM | OVCAR-3 > 100 µM | U-251 > 100 µM | NCI-H522 > 100 µM | SF-295 > 100 µM | SW-620 > 100 µM | SN12C > 100 µM | UACC-62 > 100 µM | NCI-H460 > 100 µM | CAKI-1 > 100 µM | OVCAR-5 > 100 µM | OVCAR-8 > 100 µM | HOP-92 > 100 µM

C=C1C(C)C2C(Cc3ccccc3)NC(=O)C23OC(=O)/C=C\CC(=O)CCC(C)C/C=C/C3C1O (stereo not drawn)
active: TK-10 0.0834 µM | NCI-H522 0.859 µM | CAKI-1 0.421 µM | HOP-92 0.581 µM
inactive: OVCAR-4 2.31 µM | HCC 2998 6.19 µM | OVCAR-3 1.82 µM | U-251 2.54 µM | HOP-62 2 µM | SF-295 2.54 µM | SW-620 1.36 µM | SN12C 1.93 µM | UACC-62 2.45 µM | NCI-H460 5.85 µM | OVCAR-5 8.69 µM | OVCAR-8 2.54 µM

Cc1nc2c(s/c(=N\N)n2-c2ccccc2)c(=O)n1C
inactive: TK-10 > 100 µM | OVCAR-4 > 100 µM | SR > 100 µM | HCC 2998 > 100 µM | U-251 > 100 µM | NCI-H522 > 100 µM | SF-295 > 100 µM | SW-620 > 100 µM | SN12C > 100 µM | UACC-62 > 100 µM | NCI-H460 > 100 µM | CAKI-1 > 100 µM | OVCAR-5 > 100 µM | OVCAR-8 > 100 µM | HOP-92 > 100 µM

COC1OC(COS(=O)(=O)c2ccc(C)cc2)C(O)C(OS(=O)(=O)c2ccc(C)cc2)C1OS(=O)(=O)c1ccc(C)cc1 (stereo not drawn)
inactive: OVCAR-4 > 100 µM | SR > 100 µM | HCC 2998 > 100 µM | OVCAR-3 > 100 µM | U-251 > 100 µM | HOP-62 > 100 µM | NCI-H522 > 100 µM | SF-295 > 100 µM | SW-620 16 µM | SN12C > 100 µM | NCI-H460 > 100 µM | OVCAR-5 > 100 µM | OVCAR-8 > 100 µM
active: CAKI-1 1.03 µM
